Measured values taken from patent US20230091047A1 (priority 2019, published 2023).
Like-named read-outs stand apart in the source and are kept apart here.

Tests used:
in vitro = format: cell-based; settings: human, HepG2 or HepG2.117 cells, ATPlite, mean value
Summary of the method: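 Luminescent ATP quantitation served as the viability endpoint following a 3- or 4-day incubation with test compounds.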

[1] = test system: HBV (HepG2.117 cell line, inducibly HBV producing); assay: Anti-HBV activity: intracellular HBV DNA by real-time PCR in HepG2.117 cells after 3 days of treatment; format: cell-based, hepatitis B virus
Summary of the method: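 First, HBV replication is induced in HepG2.117 cells by doxycycline absence. Next, serially diluted compound is added for 3 days. Finally, intracellular HBV DNA is quantified by HBV-specific real-time PCR.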

[2] = 3-days incubation (not marked with *)
[3] = Hepatitis B virus, HepG2.117, 72 h, HepG2.117 cells, intracellular HBV DNA by real-time PCR, 3 days of treatment, mean value; read-out: EC50 (μM, mean value)
[4] = 3-days incubation (unmarked values)
[5] = Hepatitis B virus, HepG2.117, 72 h, HepG2.117 cells, 3 days of treatment, intracellular HBV DNA by real-time PCR; mean value; read-out: EC50 (μM, mean value)

Compound	CC50 at 3 days (in vitro; [2]) [µM]	EC50 [1, 3] [µM]	CC50 at 3 days (in vitro; [4]) [µM]	EC50 [1, 5] [µM]
CNC(=O)c1ccc(-n2c(NC(C)(C)C)nc3c(c2=O)C[C@@H](C)N(C(=O)c2ccc(Cl)c(C(F)(F)F)c2)C3)c(Cl)c1 (single isomer, unassigned) [Compound C677b]	24	0.02	–	–
CNC(=O)c1cnc(-n2c(N[C@@H](C)c3ccc(C(F)(F)F)cc3)nc3c(c2=O)C[C@@H](C)N(C(=O)c2ccc(Cl)c(Cl)c2)C3)cn1 [Compound C615]	> 50	0.13	–	–
CNC(=O)c1ccc(-n2c(N[C@@H]3CCOc4cc(OC)ccc43)nc3c(c2=O)C[C@@H](C)N(C(=O)c2ccc(Cl)c(Cl)c2)C3)cc1 (single isomer, unassigned) [Compound C527a]	> 50	0.39	–	–
CNC(=O)c1ccc(-n2c(NC(C)C)nc3c(c2=O)C[C@@H](C)N(C(=O)c2ccc(Cl)c(C(F)(F)F)c2)C3)cc1 [Compound C428]	> 50	0.03	–	–
COc1ccc(CNc2nc3c(c(=O)n2-c2ccc(S(C)(=O)=O)cc2)CCN(C(=O)c2ccc(Cl)c(Cl)c2)C3)cc1 [Compound C84, 7-(3,4-dichlorobenzoyl)-3-[4-(methanesulfonyl)phenyl]-2-{[(4-methoxyphenyl)methyl]amino}-5,6,7,8-tetrahydropyrido[3,4-d]pyrimidin-4(3H)-one]	–	–	> 50	0.57
CNC(=O)c1ccc(-n2c(N[C@H](c3ccc(OC)cc3)C(C)C)nc3c(c2=O)C[C@@H](C)N(C(=O)c2ccc(Cl)c(Cl)c2)C3)cc1 (single isomer, unassigned) [Compound C422b]	17.2	0.28	–	–
CNC(=O)c1ccc(-n2c(NC(C)C)nc3c(c2=O)C[C@@H](C)N(C(=O)c2ccc(OC(F)F)c(Br)c2)C3)cc1 [Compound C571]	> 50	0.09	–	–
CNC(=O)c1ccc(-n2c(N[C@H](C)c3nc[nH]n3)nc3c(c2=O)C[C@@H](C)N(C(=O)c2ccc(Cl)c(Cl)c2)C3)cc1 (single isomer, unassigned) [Compound C439a]	> 50	> 10	–	–
COc1ccccc1-n1c(OC)nc2c(c1=O)CCN(C(=O)c1ccc(Cl)c(Cl)c1)C2 [Compound C54, 7-(3,4-dichlorobenzoyl)-2-methoxy-3-(2-methoxyphenyl)-5,6,7,8-tetrahydropyrido[3,4-d]pyrimidin-4(3H)-one]	–	–	29.7	4.59
CNC(=O)c1ccc(-n2c(N3CC[C@@H]3c3ccccc3)nc3c(c2=O)C[C@@H](C)N(C(=O)c2ccc(Cl)c(Cl)c2)C3)cc1 (single isomer, unassigned) [Compound C348, 4-[(6R)-7-(3,4-dichlorobenzoyl)-6-methyl-4-oxo-2-[(2*R)-2-phenylazetidin-1-yl]-5,6,7,8-tetrahydropyrido[3,4-d]pyrimidin-3(4H)-yl]-N-methylbenzamide]	–	–	31.2	0.2
CNC(=O)c1ccc(-n2c(NC(C)C)nc3c(c2=O)C[C@@H](C)N(C(=O)c2cnc4ccccc4n2)C3)cc1 [Compound C675]	> 50	1.6	–	–
CNC(=O)c1ccc(-n2c(NC(C)C)nc3c(c2=O)C[C@@H](C)N(C(=O)c2ccc(Cl)c(Cl)c2)C3)cn1 [Compound C265]	–	–	> 50	0.18
CCOC(=O)c1cccc(-n2c(NCc3ccc(OC)cc3)nc3c(c2=O)CCN(C(=O)c2ccc(Cl)c(Cl)c2)C3)c1 [Compound C74, ethyl 3-[7-(3,4-dichlorobenzoyl)-2-{[(4-methoxyphenyl)methyl]amino}-4-oxo-5,6,7,8-tetrahydropyrido[3,4-d]pyrimidin-3(4H)-yl]benzoate]	–	–	> 50	1.43
CC(C)Nc1nc2c(c(=O)n1-c1ccc(S(C)(=O)=O)cc1)CCN(C(=O)c1ccc(Cl)c(C3CC3)c1)C2 [Compound C225, 7-(4-chloro-3-cyclopropylbenzoyl)-3-[4-(methanesulfonyl)phenyl]-2-[(propan-2-yl)amino]-5,6,7,8-tetrahydropyrido[3,4-d]pyrimidin-4(3H)-one]	–	–	> 50	3.46
CNC(=O)c1ccc(-n2c(NC(C)C)nc3c(c2=O)C[C@@H](C)N(C(=O)c2ccc(C(F)F)c(Cl)c2)C3)cc1 [Compound C418]	> 50	0.08	–	–
CNC(=O)c1ccc(-n2c(NC(C)C)nc3c(c2=O)C[C@@H](C)N(C(=O)c2cc4cc(Br)ccc4s2)C3)cc1 [Compound C583]	> 50	0.21	–	–
CC(C)Nc1nc2c(c(=O)n1-c1cccc(-c3cn[nH]n3)c1)C[C@@H](C)N(C(=O)c1ccc(Cl)c(Cl)c1)C2 [Compound C448]	27.9	0.12	–	–

Compound	CC50 at 3 days (in vitro; [2]) [µM]	EC50 [1, 3] [µM]	CC50 at 3 days (in vitro; [4]) [µM]	EC50 [1, 5] [µM]
CNC(=O)c1ccc(-n2c(NC34CC(C3)C4)nc3c(c2=O)C[C@@H](C)N(C(=O)c2ccc(Cl)c(Cl)c2)C3)cc1 [Compound C251, 4-[(6R)-2-[(bicyclo[1.1.1]pentan-1-yl)amino]-7-(3,4-dichlorobenzoyl)-6-methyl-4-oxo-5,6,7,8-tetrahydropyrido[3,4-d]pyrimidin-3(4H)-yl]-N-methylbenzamide]	–	–	> 50	0.25
CNC(=O)c1ccc(-n2c(NC(C)C)nc3c(c2=O)C[C@@H](C)N(C(=O)c2cc(Cl)c(Br)cc2OC)C3)cc1 [Compound C521]	> 50	7.64	–	–
CC(C)Nc1nc2c(c(=O)n1-c1ccc(S(C)(=O)=O)cc1)CCN(C(=O)c1ccc3nccn3c1)C2 [Compound C359]	–	–	> 50	> 50
COc1ccc(CNc2nc3c(c(=O)n2C2CC2)CCN(C(=O)c2ccc(Cl)c(Cl)c2)C3)cc1 [Compound C70, 3-cyclopropyl-7-(3,4-dichlorobenzoyl)-2-{[(4-methoxyphenyl)methyl]amino}-5,6,7,8-tetrahydropyrido[3,4-d]pyrimidin-4(3H)-one]	–	–	23.1	10.8
CNC(=O)c1ccc(-n2c(NC(C)C)nc3c(c2=O)C[C@@H](C)N(C(=O)c2cc(F)c(Br)c(F)c2)C3)cc1 [Compound C519]	> 50	0.02	–	–
CNC(=O)c1ncc(-n2c(NC(C)C)nc3c(c2=O)C[C@@H](C)N(C(=O)c2ccc(Cl)c(C(F)(F)F)c2)C3)n1C [Compound C671]	> 50	0.05	–	–
CC(C)Nc1nc2c(c(=O)n1-c1ccc(S(C)(=O)=O)cc1)CCN(C(=O)C1Cc3ccccc3N1)C2 (stereo not drawn) [Compound C184, 7-(2,3-dihydro-1H-indole-2-carbonyl)-3-[4-(methanesulfonyl)phenyl]-2-[(propan-2-yl)amino]-5,6,7,8-tetrahydropyrido[3,4-d]pyrimidin-4(3H)-one]	–	–	> 50	0.71
CC(C)Nc1nc2c(c(=O)n1-c1ccc(N3CCOCC3)cc1)CCN(C(=O)c1ccc(Cl)c(Cl)c1)C2 [Compound C130, 7-(3,4-dichlorobenzoyl)-3-[4-(morpholin-4-yl)phenyl]-2-[(propan-2-yl)amino]-5,6,7,8-tetrahydropyrido[3,4-d]pyrimidin-4(3H)-one]	–	–	> 50	0.48
COc1ccc(CNc2nc3c(c(=O)n2-c2ccnn2C)CCN(C(=O)c2ccc(Cl)c(Cl)c2)C3)cc1 [Compound C108, 7-(3,4-dichlorobenzoyl)-2-{[(4-methoxyphenyl)methyl]amino}-3-(1-methyl-1H-pyrazol-5-yl)-5,6,7,8-tetrahydropyrido[3,4-d]pyrimidin-4(3H)-one]	–	–	26.5	1.87
CNC(=O)c1ccc(-n2c(NC(C)C)nc3c(c2=O)C[C@@H](C)N(C(=O)c2cc4c(Cl)c(Cl)ccc4[nH]2)C3)cc1 [Compound C566]	6.8	0.03	–	–
CNC(=O)c1ccc(-n2c(NC(C)C)nc3c(c2=O)C[C@@H](C)N(C(=O)c2cc4c(F)cccc4[nH]2)C3)cc1 [Compound C505]	25.6	0.02	–	–
CCc1cc(C(=O)N2CCc3c(nc(NC(C)C)n(-c4ccc(S(C)(=O)=O)cc4)c3=O)C2)ccc1Cl [Compound C193, 7-(4-chloro-3-ethylbenzoyl)-3-[4-(methanesulfonyl)phenyl]-2-[(propan-2-yl)amino]-5,6,7,8-tetrahydropyrido[3,4-d]pyrimidin-4(3H)-one]	–	–	> 50	0.62
CNC(=O)c1ccc(-n2c(N[C@@H](c3ccc(OC)cc3)C(C)C)nc3c(c2=O)C[C@@H](C)N(C(=O)c2ccc(Cl)c(Cl)c2)C3)cc1 (single isomer, unassigned) [Compound C422a]	10.5	7.77	–	–
CNC(=O)c1n[nH]c(-n2c(NC(C)C)nc3c(c2=O)C[C@@H](C)N(C(=O)c2ccc(Cl)c(Cl)c2)C3)c1C [Compound C693]	> 50	0.11	–	–
COc1ccc(CNc2nc3c(c(=O)n2C2CCN(S(C)(=O)=O)CC2)CCN(C(=O)c2ccc(Cl)c(Cl)c2)C3)cc1 [Compound C66, 7-(3,4-dichlorobenzoyl)-3-[1-(methanesulfonyl)piperidin-4-yl]-2-{[(4-methoxyphenyl)methyl]amino}-5,6,7,8-tetrahydropyrido[3,4-d]pyrimidin-4(3H)-one]	–	–	> 50	0.77
CNC(=O)c1ccc(-n2c(N3CCC[C@H]3C)nc3c(c2=O)C[C@@H](C)N(C(=O)c2ccc(Cl)c(Cl)c2)C3)cc1 [Compound C252, 4-[(6R)-7-(3,4-dichlorobenzoyl)-6-methyl-2-[(2R)-2-methylpyrrolidin-1-yl]-4-oxo-5,6,7,8-tetrahydropyrido[3,4-d]pyrimidin-3(4H)-yl]-N-methylbenzamide]	–	–	25.9	0.04
